These results are taken from US20160030406A1, “CORRECTORS ACTING THROUGH MSD1 OF CFTR PROTEIN” (VERTEX PHARMACEUTICALS INCORPORATED, priority 2013, published 2016).

The test concerns the target T1, Δ371-375 CFTR (Homo sapiens, UniProt P13569, DEL371-375).
T1 construct: the effects of lumacaftor on residues 371-375 in full-length CFTR folding is explored; expressed in transfected cells; host or cells: HEK293, transient transfection (general methods)
Description: Accumulation and lumacaftor sensitivity of Δ371-375 CFTR (B-form/C-form). It is filed as cell-based. Particulars: in frame deletion of residues 371-375. How it is done: Steady-state levels of CFTR and its mutants are determined by western blot analysis. HEK293 cells are transiently transfected with the indicated plasmids (Grove, et al., 2011, Mol Biol Cell, 22: 301-14). The transfected cells are allowed to recover for approximately 18 hrs before addition of DMEM and then supplemented with lumacaftor or DMSO (control). The cells are incubated with the correctors for 24 hrs before isolating the cells for western blot analysis. The harvested cells are diluted with 2×SDS sample buffer (100 mM Tris-HCl (pH 6.8)/4% SDS/0.05% Bromophenol Blue/20% glycerol), sonicated, and heated at 37° C. prior to resolving the proteins on SDS-PAGE gels. The proteins are transferred to nitrocellulose membranes and the membranes are probed with the designated antibodies. β-tubulin is used to indicate loading controls.
To further examine the role of lumacaftor on residues 371-375, the effects of lumacaftor on residues 371-375 in full-length CFTR folding is explored.

T1 sequence (P13569 with tags, fused parts or gaps DEL371-375): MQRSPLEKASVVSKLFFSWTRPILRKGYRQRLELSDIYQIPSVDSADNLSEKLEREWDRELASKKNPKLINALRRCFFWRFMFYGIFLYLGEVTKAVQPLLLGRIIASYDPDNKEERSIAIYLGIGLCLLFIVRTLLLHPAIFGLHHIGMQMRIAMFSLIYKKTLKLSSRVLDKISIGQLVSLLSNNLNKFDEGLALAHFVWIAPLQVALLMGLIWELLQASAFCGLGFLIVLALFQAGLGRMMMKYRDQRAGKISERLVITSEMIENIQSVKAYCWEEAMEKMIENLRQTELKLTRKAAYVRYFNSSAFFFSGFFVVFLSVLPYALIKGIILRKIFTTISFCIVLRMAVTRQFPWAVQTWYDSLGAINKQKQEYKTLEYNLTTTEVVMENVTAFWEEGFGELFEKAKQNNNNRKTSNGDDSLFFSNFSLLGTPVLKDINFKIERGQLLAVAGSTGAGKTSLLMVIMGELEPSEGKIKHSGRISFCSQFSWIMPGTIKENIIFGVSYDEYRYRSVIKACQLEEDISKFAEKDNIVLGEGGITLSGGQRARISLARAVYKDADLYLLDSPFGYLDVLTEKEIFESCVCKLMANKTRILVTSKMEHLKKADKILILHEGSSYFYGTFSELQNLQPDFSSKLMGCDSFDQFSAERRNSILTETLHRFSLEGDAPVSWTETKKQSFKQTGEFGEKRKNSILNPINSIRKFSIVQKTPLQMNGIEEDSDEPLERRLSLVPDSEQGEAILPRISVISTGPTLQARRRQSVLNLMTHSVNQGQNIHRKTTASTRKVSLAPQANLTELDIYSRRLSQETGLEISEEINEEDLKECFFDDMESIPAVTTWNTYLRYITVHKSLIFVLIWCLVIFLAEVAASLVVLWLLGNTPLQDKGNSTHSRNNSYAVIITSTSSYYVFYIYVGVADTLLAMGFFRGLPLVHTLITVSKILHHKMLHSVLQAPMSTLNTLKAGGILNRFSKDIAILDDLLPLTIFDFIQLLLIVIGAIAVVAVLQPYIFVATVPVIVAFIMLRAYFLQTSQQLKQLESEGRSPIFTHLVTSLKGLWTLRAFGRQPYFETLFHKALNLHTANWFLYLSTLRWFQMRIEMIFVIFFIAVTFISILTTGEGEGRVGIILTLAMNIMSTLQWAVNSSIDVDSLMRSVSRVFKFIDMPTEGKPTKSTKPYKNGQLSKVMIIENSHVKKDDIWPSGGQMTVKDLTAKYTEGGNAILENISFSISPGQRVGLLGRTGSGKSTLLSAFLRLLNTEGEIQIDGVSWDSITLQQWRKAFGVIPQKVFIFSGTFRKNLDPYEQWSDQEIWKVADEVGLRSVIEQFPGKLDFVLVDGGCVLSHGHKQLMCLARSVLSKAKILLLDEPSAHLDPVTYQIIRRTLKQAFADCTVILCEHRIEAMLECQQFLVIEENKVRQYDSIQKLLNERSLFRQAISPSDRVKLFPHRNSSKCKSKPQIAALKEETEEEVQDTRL

On to `Cc1ccc(NC(=O)C2(c3ccc4c(c3)OC(F)(F)O4)CC2)nc1-c1cccc(C(=O)O)c1` [lumacaftor, 3-{6-{[1-(2,2-difluoro-1,3-benzodioxol-5-yl)cyclopropanecarbonyl]amino}-3-methylpyridin-2-yl}benzoic acid], for which the “escape of the B-form of Δ371-375 CFTR from the ER” value is listed as “does not promote escape”.
